The nature of this experiment: Inhibitory concentration was determined against delta-opioid receptor using [3H]- DPDPE radioligand.

Experimental findings from BindingDB's records for doi:10.1021/jm00003a020 (University of Washington, 1995) are described below.

Turning to `Oc1ccc2c3c1O[C@H]1[C@H](OCc4ccc(N=C=S)cc4)CC[C@@]4(O)C(C2)N(CC2CC2)CCC314` (stereo partly drawn) [4-cyclopropylmethyl-14-(4-isothiocyanatobenzyloxy)-(1S,13R,14R,17S)-12-oxa-4-azapentacyclo[9.6.1.01,13.05,17.07,18]octadeca-7,9,11(18)-triene-10,17-diol(p-NCS)], the IC50 (usually the concentration at which inhibition is half-maximal) was determined as 35 nM. On to `Oc1ccc2c3c1O[C@H]1[C@H](OCc4cccc(CN=C=S)c4)CC[C@@]4(O)C(C2)N(CC2CC2)CCC314` (stereo partly drawn) [4-cyclopropylmethyl-14-(3-isothiocyanatomethylbenzyloxy)-(1S,13R,14R,17S)-12-oxa-4-azapentacyclo[9.6.1.01,13.05,17.07,18]octadeca-7,9,11(18)-triene-10,17-diol(m-CH2NCS)], for which the IC50 amounted to 12 nM. Against the preceding compound, the IC50 is about 2.9-fold lower.

The compound `Oc1ccc2c3c1O[C@H]1[C@H](OCc4ccccc4CN=C=S)CC[C@@]4(O)C(C2)N(CC2CC2)CCC314` (stereo partly drawn) [4-cyclopropylmethyl-14-(2-isothiocyanatomethylbenzyloxy)-(1S,13R,14R,17S)-12-oxa-4-azapentacyclo[9.6.1.01,13.05,17.07,18]octadeca-7,9,11(18)-triene-10,17-diol(o-CH2NCS)] came in with an IC50 of 22 nM. This IC50 lies about 1.8-fold higher than the previous one. In turn, `Oc1ccc2c3c1O[C@H]1[C@H](OCc4ccccc4N=C=S)CC[C@@]4(O)C(C2)N(CC2CC2)CCC314` (stereo partly drawn) [4-cyclopropylmethyl-14-(2-isothiocyanatobenzyloxy)-(13R,14R,17S)-12-oxa-4-azapentacyclo[9.6.1.01,13.05,17.07,18]octadeca-7,9,11(18)-triene-10,17-diol(o-NCS)] displayed an IC50 of 1.8 nM.

In the case of `Oc1ccc2c3c1O[C@H]1[C@H](OCc4cccc(N=C=S)c4)CC[C@@]4(O)C(C2)N(CC2CC2)CCC314` (stereo partly drawn) [4-cyclopropylmethyl-14-(3-isothiocyanatobenzyloxy)-(1S,13R,14R,17S)-12-oxa-4-azapentacyclo[9.6.1.01,13.05,17.07,18]octadeca-7,9,11(18)-triene-10,17-diol(m-NCS)], the IC50 was determined as 6.5 nM.
